Assays:
[1] = system: CD-1 mice; assay: Antinociception, tail flick warm water bioassay, intravenous administration; assay type: in vivo, ICR (CD-1) male out bred mice; details: 14 mg Kg^-1 Leucine[5]-Enkephalin (L, LG) or 20 mg Kg^-1 TPLENK (PG), out of 8 mice
Experimental: (§1) ICR (CD-1) male out bred mice (22-28 g, 4-5 weeks old, Harlan, Oxon, UK) were used. The animals were housed in groups of 5 in plastic cages in controlled laboratory conditions with ambient temperature and humidity maintained at ˜22° C. and 60% respectively with a 12-hour light and dark cycle (lights on at 8:00 and off at 20:00). Food and water were available ad libitum and the animals acclimatised for 5-7 days, prior to any experiments, in the Animal House, School of Pharmacy, University of London (London, UK). Animals were only used once and were acclimatised in the testing environment for at least 20 hours prior to testing. […]
Sodium Chloride 0.9% (pH 7.4) was used as the disperse phase. […] The administered volume was adjusted based on HPLC quantification of Leucine^[5]-Enkephalin and TPLENK and the body weight of each animal. […]
Antinociception was assessed in mice using the tail flick warm water bioassay (D'Amour and Smith 1941; Mogil et al. 1999). […] The response latency times, in centiseconds, recorded for each mouse to withdraw its tail by a “sharp flick” were recorded using a digital stopwatch capable of measuring 1/100th of a second. […] Mice not responding within 5 sec were excluded from further testing (Baseline cut-off=5 seconds) and the baseline latency was measured for all mice 2 hours prior testing. […]
All results were expressed as mean±standard error (i.e. SE: SD/√n). […]

[2] = system: CD-1 mice; assay: Antinociception, tail flick warm water bioassay, oral administration; assay type: in vivo, ICR (CD-1) male out bred mice; details: 70 mg Kg^-1 Leucine[5]-Enkephalin (L, LG) or 100 mg Kg^-1 TPLENK (PG), out of 16 mice
Experimental: as §1, with “and 60% with a” for “and 60% respectively with a”, “Animals were fasted overnight for oral delivery experiments. Animals were only used” for “Animals were only used”, “were acclimatised at the testing” for “were acclimatised in the testing”
Double de-ionised filtered (0.2 μm, 33 mm Millex GP syringe driven filter unit, PES membrane for sterilisation of aqueous solutions) water was used as the disperse phase. […] The administered volume was adjusted based on HPLC quantification of LENK and TPLENK and the body weight of each animal. […]
Antinociception was assessed in mice using the tail flick warm water bioassay (D'Amour and Smith 1941; Mogil et al. 1999). […] The response latency times, in centiseconds, recorded for each mouse to withdraw its tail by a “sharp flick” were recorded using a digital stopwatch capable of measuring 1/100th of a second. […] Briefly, percent antinociception was calculated as 100% ×(test latency-baseline latency)/(10 seconds−baseline latency). […]

[3] = HPLC quantification of the peptide content of the formulations; assay type: physicochemical; details: formulations for oral administration, not filtered
From the text: Formulations were not filtered.
The formulations were left overnight in the fridge and prior to intravenous administration were filtered (0.8 μm, 13 mm, Acrodisc Syringe Filter, Super Low Protein Binding Non-Pyrogenic Membrane, PALL Life Sciences). A clear filtrate was obtained for Leucine^[5]-Enkephalin and Leucine^[5]-Enkephalin and GCPQ and a translucent liquid was obtained for Palmitoylated Leucine^[5]-Enkephalin (TPLENK) and GCPQ. The administered intravenous volume of the formulations was set to a maximum of 0.2 ml per mouse. […] The maximum volume was dosed for placebo (NaCl, 0.9% w/v) receiving mice.
Polymer dispersions with Leucine^[5]-Enkephalin (LENK) or Palmitoylated Leucine^[5]-Enkephalin (TPLENK) were dissolved in mobile phase and analysed by HPLC. Samples were chromatographed over a reverse phase HPLC Sunfire C18 column (5 μm, 4.6 mm×250 mm) with a guard column attached [Waters Sunfire C18 (5 μm, 4.6 mm×10 mm)], using a Waters™ 515 HPLC pump connected to a Water™ 717 plus Autosampler with a Waters™ 486 Tunable Absorbance Detector. The mobile phase consisted of 82% 50 mM acetate buffer and 18% acetonitrile (pH 5.8). Unless otherwise indicated, samples were detected at 280 nm. The flow rate was set at 1 mL min^−1 at 35° C. and an injection volume of 40 μL was used. […] Empower software I was used for data analysis. […]

[4] = Pharmacokinetics after oral administration; plasma and brain Leucine[5]-Enkephalin by radioimmunoassay; assay type: in vivo, ICR (CD-1) male out bred mice; details: mice
Experimental: ICR (CD-1) male out bred mice (18-24 g, 4 weeks old, Harlan, Oxon, UK) were used. The animals were housed in groups of 5 in plastic cages in controlled laboratory conditions with ambient temperature and humidity maintained at ˜22° C. and 60% with a 12-hour light and dark cycle (lights on at 7:00 and off at 19:00). Food and water were available ad libitum and the animals acclimatised for 5-7 days prior to any experiments in the Animal House, School of Pharmacy, University of London (London, UK). Animals were fasted overnight for oral delivery experiments. Animals were only used once and were acclimatised at the testing environment for at least 1 hour prior to testing.
Syringes were attached to 19-20G commercial gavage needles (2-3 cm long) for oral administration.
Double de-ionised filtered (0.2 μm, 33 mm Millex GP syringe driven filter unit, PES membrane for sterilisation of aqueous solutions) water was used as the disperse phase for the oral formulations. […] All formulations were prepared by vortexing (WhirliMixer, Fisherbrand) and then by probe sonication (MSE Soniprep 150) with the instrument set at 50% of its maximum output for 15 minutes on ice. The formulations were left overnight in the fridge; the administered volume was set to a maximum of 0.2 ml per mouse. The administered volume was adjusted based on the HPLC quantification of LENK and TPLENK and the body weight of each animal. The maximum volume was dosed for placebo (H2O) receiving mice.
Blood samples (0.4-0.8 mls per mouse) were collected into a chilled syringe and transferred into evacuated sterile spray coated (with tripotassium ethylenediamine tetraacetic acid—3.6 mg) medical grade PET tubes (3×75 mm K3E Vacutainer©, BD Biosciences, UK) and maintained on ice (4° C.) until centrifugation. There is no dilution effect in spray coated tubes. Plasma was obtained as the supernatant after centrifugation of blood samples at 1,600 g or 4800 rpm for 15 minutes at 4° C. with a Hermle Z323 centrifuge (Hermle Laborteschink GmbH, Germany) and was pipetted into 1.5 mL centrifuge tubes and stored at −70° C. for later use.
Brain tissue minus the cerebellum (0.25-0.35 g) recovered from mice was immediately frozen in liquid nitrogen (−80° C.) until they were homogenised. The brain weight was recorded for each individual animal. After thawing tissues were boiled for 10 minutes in 30 volumes of a mixture of 1M of acetic acid, 0.02M of hydrochloric acid and 0.1% 2-mercaptoethanol (De Ceballos et al. 1991; Ahmed et al. 1994; Wu et al. 2005). The tissues were homogenised with 80 strokes per minute for half a minute with a glass 3 mL homogeniser (Jencons-PLS, England). […]

With `CC(C)C[C@H](NC(=O)[C@H](Cc1ccccc1)NC(=O)CNC(=O)CNC(=O)[C@@H](N)Cc1ccc(O)cc1)C(=O)O` [L, Leucine^[5]-Enkephalin] the “analgesic responders (response 2 or more times the baseline latency)” value [1] was 37.5%, the “mice reaching maximal possible latencies” value ([1]; cut-off 10 seconds) was 0% and the “analgesic responders (response 2 or more times the baseline latency)” value [2] was 31.25%. For the same compound, the “mice reaching maximal possible latencies” value ([2]; cut-off 10 seconds) was 6.25%, the “peptide content of the formulations (HPLC)” value [3] was 99.9% and the “time of peak Leucine[5]-Enkephalin concentration in the brain tissue” value ([4]; 70 mg Kg^-1 Leucine[5]-Enkephalin (L, LG) or 100 mg Kg^-1 TPLENK (PG), brain) was 4 h. For the same compound, the “peak Leucine[5]-Enkephalin concentration in the brain tissue” value ([4]; 70 mg Kg^-1 Leucine[5]-Enkephalin (L, LG) or 100 mg Kg^-1 TPLENK (PG), brain, at 4 hours) was 0.695 ng/g, the “peak plasma concentration of Leucine[5]-Enkephalin” value ([4]; 70 mg Kg^-1 Leucine[5]-Enkephalin (L, LG) or 100 mg Kg^-1 TPLENK (PG), plasma) was 29.3 ng 10^−1mL^−1 and the Tmax ([4]; male, ICR (CD-1), mouse, 70 mg Kg^-1 Leucine[5]-Enkephalin, plasma, read-out: time of peak plasma concentration of Leucine[5]-Enkephalin) was 1 h.

— patent publication US8920819B2, “Delivery of hydrophilic drugs” (University College London, priority 2009, dated 2014)
